Measured values as given in PubChem BioAssay (NCI).
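Dose response: 5 concentrations. Exposure: 48 h. Format: 96-well plates. Endpoint: linear interpolation; highest concentration if not reached. GI50 is the concentration that inhibits growth by half. Definition used: TGI = concentration required for complete inhibition of growth.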

Columns and labels:
Assay in all cases: NCI-60 cell line screen, 48 h
[1] = system: A549 NSCLC
[2] = system: BT-549 breast
[3] = system: HCT-116 colon
[4] = system: KM12 colon
[5] = system: MOLT-4 leukemia
[6] = system: SF-539 CNS
[7] = system: SK-MEL-2 melanoma
[8] = system: SNB-75 CNS
[9] = system: SR leukemia
[10] = system: UO-31 renal

| SMILES | GI50 [1] [µM] | TGI [1] [µM] | GI50 [2] [µM] | TGI [2] [µM] | GI50 [3] [µM] | TGI [3] [µM] | GI50 [4] [µM] | TGI [4] [µM] | GI50 [5] [µM] | TGI [5] [µM] | GI50 [6] [µM] | TGI [6] [µM] | GI50 [7] [µM] | TGI [7] [µM] | GI50 [8] [µM] | TGI [8] [µM] | GI50 [9] [µM] | TGI [9] [µM] | GI50 [10] [µM] | TGI [10] [µM] |
| --- | --- | --- | --- | --- | --- | --- | --- | --- | --- | --- | --- | --- | --- | --- | --- | --- | --- | --- | --- | --- |
| Cn1cc(-c2ccc3occ(-c4cccc(-c5ccncc5)c4)c3n2)cn1 | 0.714 | > 100 | 1.22 | 17.1 | 0.382 | > 100 | 0.358 | > 100 | 0.582 | > 100 | 0.734 | 5.54 | 0.758 | > 100 | 0.404 | 13.4 | 0.23 | > 100 | 1.46 | > 100 |
| COC(=O)[C@H](C[C@H](Cc1ccccc1)NC(=O)c1csc([C@@H](C[C@H](C(C)C)N(C)C(=O)[C@@H](NC(=O)[C@H]2CCCCN2C)C(C)C)OC(C)=O)n1)NC(=O)OCc1ccccc1 | 0.00156 | > 9 | < 0.0009 | 0.0689 | < 0.0009 |  | < 0.0009 | > 9 | < 0.0009 | > 9 | < 0.0009 | 0.00367 | < 0.0009 | 4.53 | < 0.0009 | > 9 | < 0.0009 | > 4.29 | 0.0111 | > 9 |
| CC(C)c1cc(-c2n[nH]c(=O)n2-c2ccc3c(ccn3C)c2)c(O)cc1O | < 0.0204 | > 71.3 | 1.87 | 44.3 | < 0.0141 | 13.5 | 0.0221 | 0.062 | < 0.0177 |  | < 0.0279 | 21.8 |  | 25.7 | 1.58 | 97.7 | < 0.01 | 35 | < 0.0218 | > 65.2 |
| O=C(O)/C=C\C(=O)N1C/C(=C\c2ccccc2Cl)C(=O)/C(=C/c2ccccc2Cl)C1 | 3.01 | 13 | 2.06 | 4.11 | 1.6 | 3.45 | 1.6 | 3.12 | 3.06 | 11.2 | 3.01 | 8.24 | 3.08 | 8.33 | 3.8 | 14 | 0.632 | 13 | 1.98 | 3.72 |
| COC(=O)[C@@]1(C)CC[C@]2(C)CC[C@]3(C)C4=CC=C5C(=CC(=O)C(O)=C5C)[C@]4(C)[C@@H](O)C[C@@]3(C)[C@@H]2C1 | 15.9 | 30.1 | 10.5 | 22.3 | 3.67 | 14.3 | 13 | 25.1 | 3.18 | 20.1 | 15.7 | 28.8 | 11.2 | 23.2 | 11.6 | 26 | 2.69 | 19 | 5.8 | 16.2 |
| CCOC(=O)c1cc(NS(=O)(=O)c2ccccc2)cc(C(=O)OCC)c1 | > 100 | > 100 | > 100 | > 100 | > 100 | > 100 | > 100 | > 100 | > 100 | > 100 | > 100 | > 100 | > 100 | > 100 | > 100 | > 100 | > 100 | > 100 | > 100 | > 100 |
| COc1ccc2c(c1)cn1c3ccc(O)cc3nc(N)c21 | 0.174 | 4.22 | 4.72 | 22.7 | 0.0341 | 1.86 | 0.615 | 5.7 | 1.18 | 21.7 | 0.237 | 2.72 | 0.27 | 5.14 | 0.112 | 2.81 | 0.0743 | 2.76 | 0.148 | 10.3 |
| Cc1ccc(-c2cn3ccnc3c(-c3ccc(Cl)cc3)n2)cc1 | 1.33 | > 49.8 | 2.3 | 65.3 | 0.292 | > 33.8 | 0.15 | 16.6 | 0.0815 | > 100 | 0.0422 | 1.35 | 9.27 | > 100 | 0.465 | 24.5 | 0.0548 |  |  | > 100 |
